The IC50 is the concentration at which inhibition is half-maximal.

Among the data in patent US20120238553A1 (priority 2009, published 2012) are IC50 values, retold here.

This assay addresses α7-subtype of nicotinic receptors (Rattus norvegicus, UniProt Q05941). As to the kind of experiment: biochemical. Format: binding.

Structures can show the parent of a compound that is named as a salt.

Sequence of α7-subtype of nicotinic receptors (Q05941 23-502): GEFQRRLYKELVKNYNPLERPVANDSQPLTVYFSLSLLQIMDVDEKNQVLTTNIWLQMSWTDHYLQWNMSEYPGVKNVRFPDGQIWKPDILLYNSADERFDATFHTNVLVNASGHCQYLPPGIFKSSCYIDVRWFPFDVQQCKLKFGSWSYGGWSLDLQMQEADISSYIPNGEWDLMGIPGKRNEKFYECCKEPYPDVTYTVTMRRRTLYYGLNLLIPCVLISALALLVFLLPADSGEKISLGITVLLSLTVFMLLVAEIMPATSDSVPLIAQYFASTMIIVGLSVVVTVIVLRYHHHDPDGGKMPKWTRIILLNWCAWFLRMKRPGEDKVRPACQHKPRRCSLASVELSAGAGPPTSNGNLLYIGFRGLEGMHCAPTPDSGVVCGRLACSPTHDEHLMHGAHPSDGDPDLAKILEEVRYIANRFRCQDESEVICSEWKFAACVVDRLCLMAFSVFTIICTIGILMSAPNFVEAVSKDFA

`c1cc2c(c(-c3nnc(N4CCN5CCC4CC5)o3)c1)OCO2` [Compound 1, 4-(5-Benzo[1,3]dioxol-4-yl-[1,3,4]oxadiazol-2-yl)-1,4-diaza-bicyclo[3.2.2]nonane fumaric acid salt]: inhibition was half-maximal at 22 nM (IC50).
